From BindingDB's records for doi:10.1021/jm010246u (University of Texas At Austin, 2001) come the findings set out here.

The target of assay [1] is T1, Telomerase reverse transcriptase (Homo sapiens, UniProt O14746). Put plainly: Apparent telomerase inhibition by G-quadruplex mechanism.
The target in assay [2] is T1, Telomerase reverse transcriptase. In words: Apparent telomerase inhibition by primer mechanism.

T1 sequence (O14746 whole entry): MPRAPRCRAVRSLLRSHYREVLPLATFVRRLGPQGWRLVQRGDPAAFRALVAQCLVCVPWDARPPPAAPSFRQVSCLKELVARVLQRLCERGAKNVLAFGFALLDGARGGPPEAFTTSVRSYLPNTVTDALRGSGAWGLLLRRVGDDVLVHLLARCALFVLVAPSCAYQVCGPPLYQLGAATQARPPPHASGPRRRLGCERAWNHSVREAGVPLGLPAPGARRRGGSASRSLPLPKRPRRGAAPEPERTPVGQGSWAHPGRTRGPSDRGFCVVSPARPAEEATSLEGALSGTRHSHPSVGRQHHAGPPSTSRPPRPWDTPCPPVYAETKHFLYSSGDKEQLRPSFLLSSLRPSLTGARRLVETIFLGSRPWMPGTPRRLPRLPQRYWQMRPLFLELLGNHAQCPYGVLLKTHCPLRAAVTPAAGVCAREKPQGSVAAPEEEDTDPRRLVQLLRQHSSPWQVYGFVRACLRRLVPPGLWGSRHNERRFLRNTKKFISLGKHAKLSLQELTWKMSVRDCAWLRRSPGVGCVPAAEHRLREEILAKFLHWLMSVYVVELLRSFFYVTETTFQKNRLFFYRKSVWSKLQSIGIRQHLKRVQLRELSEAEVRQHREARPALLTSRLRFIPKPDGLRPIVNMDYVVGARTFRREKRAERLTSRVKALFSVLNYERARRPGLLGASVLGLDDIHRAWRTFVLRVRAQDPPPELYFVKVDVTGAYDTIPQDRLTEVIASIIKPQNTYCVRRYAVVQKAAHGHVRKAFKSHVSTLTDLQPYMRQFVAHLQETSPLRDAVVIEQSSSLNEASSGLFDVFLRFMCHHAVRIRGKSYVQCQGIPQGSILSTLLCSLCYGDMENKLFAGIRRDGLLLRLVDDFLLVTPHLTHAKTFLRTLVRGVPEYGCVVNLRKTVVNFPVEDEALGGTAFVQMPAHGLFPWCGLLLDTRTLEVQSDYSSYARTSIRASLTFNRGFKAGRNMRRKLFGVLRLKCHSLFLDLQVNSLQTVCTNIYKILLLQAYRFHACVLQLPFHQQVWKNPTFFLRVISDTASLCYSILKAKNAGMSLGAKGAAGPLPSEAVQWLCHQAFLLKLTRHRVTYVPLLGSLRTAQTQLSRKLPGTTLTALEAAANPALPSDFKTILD

In general, IC50 refers to the concentration at which inhibition is half-maximal. In the case of `C[n+]1ccc(-c2c3nc(c(-c4cc[n+](C)cc4)c4ccc([nH]4)c(-c4cc[n+](C)cc4)c4nc(c(-c5cc[n+](C)cc5)c5ccc2[nH]5)C=C4)C=C3)cc1`, in assay [1], the IC50 came out at 8 µM.
Same read-out and setting: to `C[n+]1ccc(-c2c3nc(c(-c4cccc([N+](=O)[O-])c4)c4nc(c(-c5cc[n+](C)cc5)c5ccc([nH]5)c(-c5cccc([N+](=O)[O-])c5)c5ccc2[nH]5)C=C4)C=C3)cc1` belongs 25 µM; to `C[n+]1ccc(-c2c3nc(c(-c4cc[n+](C)cc4)c4ccc([nH]4)c(-c4cccc([N+](=O)[O-])c4)c4ccc([nH]4)c(-c4cc[n+](C)cc4)c4nc2C=C4)C=C3)cc1`, 12 µM.
On to `CC[n+]1ccc(-c2c3nc(c(-c4cc[n+](CC)cc4)c4ccc([nH]4)c(-c4cc[n+](CC)cc4)c4ccc([nH]4)c(-c4cc[n+](CC)cc4)c4nc2C=C4)C=C3)cc1`, for which the IC50 in assay [1] is 25 µM.
Regarding `C[n+]1cc(-c2ccco2)cc(-c2c3nc(c(-c4cc(-c5ccco5)c[n+](C)c4)c4ccc([nH]4)c(-c4cc(-c5ccco5)c[n+](C)c4)c4ccc([nH]4)c(-c4cc(-c5ccco5)c[n+](C)c4)c4nc2C=C4)C=C3)c1` [5,10,15,20-tetra[5-(2-furfuryl)-N-methyl-3-pyridyl]porphyrin chloride], in assay [2], the IC50 turned out to be 8 µM.
